Assay results reported in patent US20200397764A1, “VAP-1 INHIBITORS FOR TREATING PAIN” (BENEVOLENTAI CAMBRIDGE LIMITED, priority 2015, published 2020).

Columns and labels:
[1] = target: T1, human SSAO (Homo sapiens, UniProt Q16853); settings: Salter-Cid et al., J Pharmacol Exp Ther. 2005; read-out: human SSAO, IC(50); cited from earlier work
T1 sequence (Q16853 1-763): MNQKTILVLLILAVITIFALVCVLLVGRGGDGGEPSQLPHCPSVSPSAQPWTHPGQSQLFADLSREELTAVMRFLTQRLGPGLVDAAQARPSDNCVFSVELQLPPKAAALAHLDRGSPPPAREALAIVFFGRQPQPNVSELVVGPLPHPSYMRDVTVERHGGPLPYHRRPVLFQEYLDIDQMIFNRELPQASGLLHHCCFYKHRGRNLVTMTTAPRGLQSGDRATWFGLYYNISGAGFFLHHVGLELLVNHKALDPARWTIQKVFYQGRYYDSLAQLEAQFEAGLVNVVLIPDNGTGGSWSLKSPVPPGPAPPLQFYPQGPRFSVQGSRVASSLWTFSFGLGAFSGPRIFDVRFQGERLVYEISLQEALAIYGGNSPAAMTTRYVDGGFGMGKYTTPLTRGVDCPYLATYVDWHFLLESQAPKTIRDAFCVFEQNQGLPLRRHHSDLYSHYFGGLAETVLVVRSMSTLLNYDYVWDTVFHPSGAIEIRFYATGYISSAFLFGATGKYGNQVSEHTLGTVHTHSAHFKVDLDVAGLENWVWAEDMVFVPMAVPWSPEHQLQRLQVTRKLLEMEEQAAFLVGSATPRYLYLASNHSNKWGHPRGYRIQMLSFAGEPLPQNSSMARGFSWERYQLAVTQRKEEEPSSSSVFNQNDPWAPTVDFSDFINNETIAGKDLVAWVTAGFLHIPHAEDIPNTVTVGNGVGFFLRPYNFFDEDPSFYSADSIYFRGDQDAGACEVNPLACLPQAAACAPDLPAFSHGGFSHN

[2] = test system: adjuvant-induced arthritis; test: Adjuvant-induced arthritis model, Randall Selitto assay (mechanical hyperalgesia); type: in vivo, rat; settings: Lewis rats, dosed day 0 to day 28: LJP1207 30 mg/kg po qd, MTX 0.25 mg/kg ip 3 times per week; assessed day 7, 14, 18, 21, 25, 28; FIG. 2
Text: Rats injected into the hindpaw with a mixture of Mycobacterium butirricum emulsified in light mineral oil develop a severe polyarthritis which shares some features in common with human rheumatoid arthritis (RA), such as swelling of the extremities, cartilage degradation, loss of joint function and lymphocyte infiltration into diseased joints. This model was originally described more than 60 years ago (Pearson et al., Arthritis and Rheumatology. 1959. 2(5), 440-459) and is still the most widely used assay to identify chemical agents having a potential therapeutic efficacy in RA. […] Furthermore, this is a well-established model for inflammatory pain, especially longer-term (i.e. chronic) inflammatory pain.
Male Lewis rats (220-230 g) were housed in propylene cages with food and water ad libitum. The light cycle was automatically controlled and the room temperature thermostatically regulated to 21±1° C. Prior to the start of the experiment animals were housed in these conditions for 6-8 days.
Rats were anaesthetized before induction of CFA and then were treated orally starting from day 0 to day 28 with LJP1207 (30 mg/kg po qd) or methotrexate (MTX, 0.25 mg/kg ip 3 times per week). Control rats received the vehicle e.g. PBS starting from day 0. […] The development of arthritis was assessed at day 7, 14, 18, 21, 25 and 28. […]

[3] = target: T2, human VAP-1 (SSAO) (Homo sapiens, UniProt Q16853); test: VAP-1 Inhibition Assay (benzylamine substrate, HRP-coupled hydrogen peroxide or 14C benzaldehyde detection); type: biochemical; settings: purified recombinant human VAP-1 (SSAO), room temperature
T2 construct: made in house
T2 sequence (Q16853 29-763 limits assumed): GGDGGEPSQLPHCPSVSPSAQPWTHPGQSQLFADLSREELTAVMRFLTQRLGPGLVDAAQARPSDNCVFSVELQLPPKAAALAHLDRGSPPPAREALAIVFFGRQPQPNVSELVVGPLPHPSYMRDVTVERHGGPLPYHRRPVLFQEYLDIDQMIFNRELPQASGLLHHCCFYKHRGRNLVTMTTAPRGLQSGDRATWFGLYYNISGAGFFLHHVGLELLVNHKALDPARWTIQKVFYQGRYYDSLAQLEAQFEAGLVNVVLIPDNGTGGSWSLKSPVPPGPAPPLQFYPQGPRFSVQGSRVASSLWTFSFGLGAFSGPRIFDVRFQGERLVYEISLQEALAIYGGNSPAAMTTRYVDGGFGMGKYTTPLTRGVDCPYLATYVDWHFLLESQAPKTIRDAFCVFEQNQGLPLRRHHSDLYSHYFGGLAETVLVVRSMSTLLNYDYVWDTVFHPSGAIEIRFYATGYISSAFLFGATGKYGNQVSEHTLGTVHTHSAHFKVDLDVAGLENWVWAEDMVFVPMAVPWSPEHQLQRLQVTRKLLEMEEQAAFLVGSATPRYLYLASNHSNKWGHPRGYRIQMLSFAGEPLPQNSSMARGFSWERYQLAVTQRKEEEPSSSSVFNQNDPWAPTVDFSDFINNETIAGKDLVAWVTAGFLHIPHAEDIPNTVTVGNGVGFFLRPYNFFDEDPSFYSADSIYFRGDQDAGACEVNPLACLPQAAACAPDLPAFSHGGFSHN
Procedure: This assay is performed at room temperature with purified recombinantly expressed human VAP-1 (SSAO). Enzyme was prepared essentially as described in Ohman et al. (Protein Expression and Purification 46 (2006) 321-331). The enzyme activity is assayed with benzylamine as substrate by measuring either benzaldehyde production, using 14C-labeled substrate, or by utilizing the production of hydrogen peroxide in a horseradish peroxidise (HRP) coupled reaction. Briefly, test compounds are dissolved in dimethyl sulfoxide (DMSO) to a concentration of 10 mM. […]
Hydrogen peroxide detection: In a horseradish peroxidise (HRP) coupled reaction, hydrogen peroxide oxidation of 10-acetyl-3,7-dihydroxyphenoxazine produces resorufin, which is a highly fluorescent compound (Zhout and Panchuk-Voloshina. Analytical Biochemistry 253 (1997) 169-174; Amplex® Red Hydrogen Peroxide/peroxidise Assay kit, Invitrogen A22188). […] Benzylarnine concentration is fixed at a concentration corresponding to the Michaelis constant, determined using standard procedures. Fluorescence intensity is then measured at several time points during 1-2 hours, exciting at 544 nm and reading the emission at 590 nm. […] The inhibition is measured as % decrease of the signal compared to a control without inhibitor (only diluted DMSO). […]

Row | IC50 [3] | Compound | IC50 [1] | inhibition of paw withdrawal (nociceptive threshold, Randall Selitto) [2]
1 |  | C=C(CNN)c1ccccc1.Cl [LJP1207, N′-(2-phenyl-allyl)-hydrazine hydrochloride] | 0.017 µM | significant inhibition at day 21, 25 and 28
2 | 0.037 µM | CC(C)[C@H]1c2[nH]cnc2CCN1C(=O)O[C@H]1CCOC1 [Compound 1, (3S)-Tetrahydrofuran-3-yl (4S)-4-isopropyl-1,4,6,7-tetrahydro-5H-Imidazo[4,5-c]pyridine-5-carboxylate] |  | 
3 |  | CN(Cc1cnc2nc(N)nc(N)c2n1)c1ccc(C(=O)N[C@@H](CCC(=O)O)C(=O)O)cc1 [MTX, methotrexate] |  | significant inhibition starting at day 18 up to day 28
